Measurements taken from US12227495B2, “Herbicidal compounds” (SYNGENTA CROP PROTECTION AG, priority 2018, dated 2025).

How the values were obtained:
Format in all cases: in vivo
Details in all cases: evaluated after 13 days
[1] = test system: Ipomoea hederacea (IPOHE); assay: Post-emergence herbicide test, glasshouse, percentage damage
Protocol: (§1) Seeds of a variety of test species are sown in standard soil in pots (Lolium perenne (LOLPE), Solanum nigrum (SOLNI), Amaranthus retoflexus (AMARE), Setaria faberi (SETFA), Echinochloa crus-galli (ECHCG), Ipomoea hederacea (IPOHE)). After cultivation for one day (pre-emergence) or after 8 days cultivation (post-emergence) under controlled conditions in a glasshouse (at 24/16° C., day/night; 14 hours light; 65% humidity), the plants are sprayed with an aqueous spray solution derived from the formulation of the technical active ingredient in acetone/water (50:50) solution containing 0.5% Tween 20 (polyoxyethelyene sorbitan monolaurate, CAS RN 9005-64-5). Compounds are applied at 500 g/ha unless otherwise stated. The test plants are then grown in a glasshouse under controlled conditions in a glasshouse (at 24/16° C., day/night; 14 hours light; 65% humidity) and watered twice daily. After 13 days for pre and post-emergence, the test is evaluated for the percentage damage caused to the plant. The biological activities are shown in the following table on a five point scale (5=81-100%; 4=61-80%; 3=41-60%; 2=21-40%; 1=0-20%).

Setaria faberi (SETFA) [2] = assay: as above
Protocol: as §1

[3] = test system: Amaranthus retoflexus (AMARE); assay: as above
Protocol: as §1

[4] = test system: Echinochloa crus-galli (ECHCG); assay: as above
Protocol: as §1

Solanum nigrum (SOLNI) [5] = assay: as above
Protocol: as §1

Lolium perenne (LOLPE) [6] = assay: as above
Protocol: as §1

[7] = test system: Ipomoea hederacea (IPOHE); assay: Pre-emergence herbicide test, glasshouse, percentage damage
Protocol: as §1

Setaria faberi (SETFA) [8] = assay: as above
Protocol: as §1

[9] = test system: Amaranthus retoflexus (AMARE); assay: as above
Protocol: as §1

[10] = test system: Echinochloa crus-galli (ECHCG); assay: as above
Protocol: as §1

Solanum nigrum (SOLNI) [11] = assay: as above
Protocol: as §1

Lolium perenne (LOLPE) [12] = assay: as above
Protocol: as §1

| Compound | percentage damage caused to the plant, IPOHE ([1]; 1000 g/ha) | percentage damage caused to the plant, SETFA (Setaria faberi (SETFA) [2]; 1000 g/ha) | percentage damage caused to the plant, AMARE ([3]; 1000 g/ha) | percentage damage caused to the plant, ECHCG ([4]; 1000 g/ha) | percentage damage caused to the plant, SOLNI (Solanum nigrum (SOLNI) [5]; 1000 g/ha) | percentage damage caused to the plant, LOLPE (Lolium perenne (LOLPE) [6]; 1000 g/ha) | Pre-emergence Test IPOHE percentage damage (five point scale) ([7]; rate 1000 g/ha) | Pre-emergence Test SETFA percentage damage (five point scale) (Setaria faberi (SETFA) [8]; rate 1000 g/ha) | Pre-emergence Test AMARE percentage damage (five point scale) ([9]; rate 1000 g/ha) | Pre-emergence Test ECHCG percentage damage (five point scale) ([10]; rate 1000 g/ha) | Pre-emergence Test SOLNI percentage damage (five point scale) (Solanum nigrum (SOLNI) [11]; rate 1000 g/ha) | Pre-emergence Test LOLPE percentage damage (five point scale) (Lolium perenne (LOLPE) [12]; rate 1000 g/ha) | other results |
| --- | --- | --- | --- | --- | --- | --- | --- | --- | --- | --- | --- | --- | --- |
| FC(F)(F)c1cnn(-c2ccccc2Oc2ccc(Cl)cn2)c1 [Compound A17] | 5 (5=81-100%) | 5 (5=81-100%) | 5 (5=81-100%) | 5 (5=81-100%) | 5 (5=81-100%) | 5 (5=81-100%) | 5 (5=81-100%) | 5 (5=81-100%) | 5 (5=81-100%) | 5 (5=81-100%) | 5 (5=81-100%) | 5 (5=81-100%) | – |
| Fc1cnc(Oc2ccccc2-n2cc(C(F)(F)F)cn2)c(F)c1 [Compound A18] | – | – | – | – | – | – | – | – | – | – | – | – | percentage damage caused to the plant, IPOHE ([1]; 250 g/ha): 2 (2=21-40%); percentage damage caused to the plant, SETFA (Setaria faberi (SETFA) [2]; 250 g/ha): 3 (3=41-60%); percentage damage caused to the plant, AMARE ([3]; 250 g/ha): 3 (3=41-60%); percentage damage caused to the plant, ECHCG ([4]; 250 g/ha): 4 (4=61-80%); percentage damage caused to the plant, SOLNI (Solanum nigrum (SOLNI) [5]; 250 g/ha): 3 (3=41-60%); percentage damage caused to the plant, LOLPE (Lolium perenne (LOLPE) [6]; 250 g/ha): 2 (2=21-40%); Pre-emergence Test IPOHE percentage damage (five point scale) ([7]; rate 250 g/ha): 1 (1=0-20%); Pre-emergence Test SETFA percentage damage (five point scale) (Setaria faberi (SETFA) [8]; rate 250 g/ha): 5 (5=81-100%); Pre-emergence Test AMARE percentage damage (five point scale) ([9]; rate 250 g/ha): 5 (5=81-100%); Pre-emergence Test ECHCG percentage damage (five point scale) ([10]; rate 250 g/ha): 5 (5=81-100%); Pre-emergence Test SOLNI percentage damage (five point scale) (Solanum nigrum (SOLNI) [11]; rate 250 g/ha): 5 (5=81-100%); Pre-emergence Test LOLPE percentage damage (five point scale) (Lolium perenne (LOLPE) [12]; rate 250 g/ha): 1 (1=0-20%) |
| N#Cc1ccc(Oc2ccccc2-n2cc(C(F)(F)F)cn2)nc1 [Compound A19] | 5 (5=81-100%) | 5 (5=81-100%) | 5 (5=81-100%) | 5 (5=81-100%) | 5 (5=81-100%) | 5 (5=81-100%) | 5 (5=81-100%) | 5 (5=81-100%) | 5 (5=81-100%) | 5 (5=81-100%) | 5 (5=81-100%) | 5 (5=81-100%) | – |
| Fc1cc(Br)cnc1Oc1cccc(F)c1-c1cc(C(F)F)no1 [Compound A20] | 5 (5=81-100%) | 4 (4=61-80%) | 5 (5=81-100%) | 4 (4=61-80%) | 5 (5=81-100%) | 4 (4=61-80%) | 3 (3=41-60%) | 5 (5=81-100%) | 4 (4=61-80%) | 5 (5=81-100%) | 3 (3=41-60%) | 5 (5=81-100%) | – |
| Fc1cc(C(F)(F)F)cnc1Oc1cccc(F)c1-c1cc(C(F)F)no1 [Compound A21] | 3 (3=41-60%) | 4 (4=61-80%) | 4 (4=61-80%) | 4 (4=61-80%) | 3 (3=41-60%) | 3 (3=41-60%) | 2 (2=21-40%) | 5 (5=81-100%) | 5 (5=81-100%) | 5 (5=81-100%) | 2 (2=21-40%) | 4 (4=61-80%) | – |
| O=[N+]([O-])c1cnc(Oc2cccc(F)c2-c2cc(C(F)F)no2)c(F)c1 [Compound A22] | 3 (3=41-60%) | 3 (3=41-60%) | 4 (4=61-80%) | 2 (2=21-40%) | 4 (4=61-80%) | 2 (2=21-40%) | 1 (1=0-20%) | 3 (3=41-60%) | 5 (5=81-100%) | 3 (3=41-60%) | 1 (1=0-20%) | 1 (1=0-20%) | – |
| N#Cc1cnc(Oc2cccc(F)c2-c2cc(C(F)F)no2)c(F)c1 [Compound A23] | 5 (5=81-100%) | 5 (5=81-100%) | 5 (5=81-100%) | 5 (5=81-100%) | 5 (5=81-100%) | 5 (5=81-100%) | 5 (5=81-100%) | 5 (5=81-100%) | 5 (5=81-100%) | 5 (5=81-100%) | 4 (4=61-80%) | 5 (5=81-100%) | – |
| Fc1cc(Cl)cnc1Oc1ccccc1-n1cc(Cl)cn1 [Compound A24, 5-chloro-2-[2-(4-chloropyrazol-1-yl)phenoxy]-3-fluoro-pyridine] | 3 (3=41-60%) | 4 (4=61-80%) | 4 (4=61-80%) | 4 (4=61-80%) | 4 (4=61-80%) | 3 (3=41-60%) | 3 (3=41-60%) | 5 (5=81-100%) | 5 (5=81-100%) | 5 (5=81-100%) | 3 (3=41-60%) | 4 (4=61-80%) | – |
| Fc1cc(Cl)cnc1Oc1cccc(F)c1-c1cc(C(F)(F)F)on1 [Compound A25, 3-[2-[(5-chloro-3-fluoro-2-pyridyl)oxy]-6-fluoro-phenyl]-5-(trifluoromethyl)isoxazole] | 4 (4=61-80%) | 5 (5=81-100%) | 5 (5=81-100%) | 4 (4=61-80%) | 5 (5=81-100%) | 5 (5=81-100%) | 5 (5=81-100%) | 5 (5=81-100%) | 5 (5=81-100%) | 5 (5=81-100%) | 5 (5=81-100%) | 5 (5=81-100%) | – |
